The experiment has as its target Prostaglandin E2 receptor EP2 subtype (Homo sapiens) (UniProt P43116). Kind of experiment: EP2 receptor modulators, dose response, cell-based, human EP2, PGE2 EC50 shift (AID 1421). The settings on record: EP2-expressing cells, PGE2 EC50 shift by compound; for PGE2 EC50 with compound: measured here: PGE2 EC50 at 6.7 uM compound.

SMILES strings stand for the structures. Calls of active or inactive are those of the source. No rule for the calls is given here.

Prostaglandin E2 receptor EP2 subtype (Homo sapiens), sequence (P43116 whole entry, looked up): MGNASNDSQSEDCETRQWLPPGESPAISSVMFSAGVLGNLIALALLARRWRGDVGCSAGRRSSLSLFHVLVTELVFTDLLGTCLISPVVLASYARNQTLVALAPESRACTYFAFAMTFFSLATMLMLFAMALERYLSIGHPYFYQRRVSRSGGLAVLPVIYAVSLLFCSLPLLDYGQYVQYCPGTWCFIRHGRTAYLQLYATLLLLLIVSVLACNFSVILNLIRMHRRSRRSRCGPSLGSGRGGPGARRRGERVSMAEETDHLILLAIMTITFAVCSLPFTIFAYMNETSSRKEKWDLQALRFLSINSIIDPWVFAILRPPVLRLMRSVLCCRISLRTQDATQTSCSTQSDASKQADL

For `CCOP(=O)(OCC)c1nc(-c2cccc3ccccc23)oc1NCc1ccc(OC)cc1`, the outcome was active and the PGE2 EC50 with compound is 0.72 nM.
On to `Cc1cc(C)nc(SCc2nnc(SCC#N)n2-c2cccc(Cl)c2)n1`, for which the PGE2 EC50 with compound is 2.76 nM.
Same read-out and setting: to `CC1=C(C(=O)OCc2ccccc2)C(c2ccc(Cl)cc2Cl)NC(=O)N1CCCCCC(=O)O` (stereo unspecified) belongs 1.23 nM; to `CCCCOc1ccccc1C1C(C(=O)OC)=C(C)N(C)C(C)=C1C(=O)OC`, 0.69 nM; to `CC(/C=C1\SC(=S)N(C(C(=O)O)C(C)C)C1=O)=C\c1ccccc1` (stereo unspecified), 0.86 nM.
In the case of `O=C(/C(=C/O)N=Nc1ccccc1Cl)c1ccccc1`, the PGE2 EC50 with compound was determined as 2.68 nM.
The same measure, in the same setting: for `CCOC(=O)c1c(NC(=O)CSc2nnnn2CC)sc(C)c1C` the value was 0.81 nM; for `CCOP(=O)(OCC)c1nc(-c2ccc(Cl)cc2)oc1NCc1ccccc1`, 0.73 nM.
On the same count and under the same terms, for `Cc1cc(Oc2ccccc2F)nc(NCc2ccccc2)n1` the value was 1.34 nM; for `Cc1ccc(C)n1-c1sc2c(c1C#N)CCCC2`, 2.65 nM; for `CC(=O)CSc1nc(-c2cccs2)c(C#N)c(=O)[nH]1`, 2.81 nM.
Same read-out and setting: to `CCOC(=O)c1c(NC(=O)c2c(Br)cnn2CC)sc(C)c1C` belongs 0.9 nM.
Turning to `COc1ccc(C(=O)COC(=O)C(CCSC)NS(=O)(=O)c2ccc(Cl)cc2)cc1` (stereo unspecified), the PGE2 EC50 with compound was 2.2 nM.
For the compound `COc1ccc(-n2c(-c3ccccc3)nnc2-c2ccc(Cl)cc2)cc1`, the PGE2 EC50 with compound came to 1.23 nM.
On to `O=c1[nH]c(SCc2cccc(Cl)c2)nc2c1CCCC2`, for which the PGE2 EC50 with compound amounted to 0.77 nM.
On the same count and under the same terms, for `COc1ccc(N2C(=O)N(Cc3ccc(C)cc3)c3ccccc3S2(=O)=O)cc1` the value was 2.81 nM.
The same measure, in the same setting: for `CCC1(CC)Cc2ccccc2-c2nc(NCCO)[nH]c(=O)c21` the value was 1.25 nM.
On the same count and under the same terms, to `COC(=O)c1sc2nc(-c3ccccc3)c3c(c2c1N)CCCC3` belongs 0.33 nM.
With `O=C(CN1CCCCC1)N1c2ccccc2Sc2ccc(C(F)(F)F)cc21`, the PGE2 EC50 with compound turned out to be 1.45 nM.
Turning to `O=c1[nH]c(N/N=C/c2ccccc2)nc2ccccc12`, the PGE2 EC50 with compound was 0.74 nM.
On the same count and under the same terms, for `COc1ccccc1C1c2[nH]c3ccccc3c2CCN1Cc1cnc(C)s1` (stereo unspecified) the value was 1.59 nM.
On the same count and under the same terms, to `O=C(CSc1nc2ccccc2o1)Nc1ccccc1N1CCCCCC1` belongs 0.78 nM; to `S=c1[nH]cc(-c2ccccc2)n1-c1ccccc1`, 1.48 nM; to `COc1cc(C=O)ccc1OC(=O)c1ccc(C(C)C)cc1`, 1.44 nM.
On to `O=C(O)CCN1C(=O)/C(=C/c2cn(-c3ccccc3)nc2-c2cccs2)SC1=S`, for which the PGE2 EC50 with compound was 0.33 nM.
Still for that read-out and setting: to `Cc1ccc(S(=O)(=O)Nc2ccc(Cl)cc2C(=O)c2ccc(F)cc2)cc1` belongs 0.97 nM.
On the same count and under the same terms, for `COc1ccc(C2=Nn3c(nnc3-c3ccccc3OC)SC2)cc1OC` the value was 0.93 nM; for `Cc1ccc(-c2csc(N(CC3CCCO3)C(=O)c3ccco3)n2)cc1` (stereo unspecified), 0.87 nM.
Same read-out and setting: to `CCSc1nc2c(c(=O)[nH]c(=O)n2C)n1Cc1ccc(Cl)cc1` belongs 1.24 nM; to `CCOc1nc(-c2ccccc2O)nc2ccccc12`, 1.1 nM.
Consider `CN(C)c1ncc(S(=O)(=O)c2ccc(Cl)cc2)c(-c2ccccc2)n1`, for which the PGE2 EC50 with compound was found to be 1.08 nM.
Consider `COC(=O)c1c(NC(=O)C2CC2)sc2c1CCCC2`, for which the result was active and the PGE2 EC50 with compound came to 0.95 nM.
On to `S=c1[nH]nc(-c2ccccc2)n1/N=C/c1ccc(-c2ccccc2Cl)o1`, for which the PGE2 EC50 with compound worked out at 2.43 nM.
Still for that read-out and setting: for `CCCc1cc(-c2nc(N)ncc2-c2ccc3c(c2)OCCCO3)c(O)cc1OC` the value was 0.86 nM.
The same measure, in the same setting: to `CCN(CC)S(=O)(=O)c1c(OC)cc(C)c(Cl)c1C` belongs 2.56 nM; to `CCOC(=O)c1c(NC(=O)c2ccn(CC)n2)sc2c1CCCC2`, 1.14 nM.
`CCC(=O)O[C@H]1CCC2C3CCC4=CC(=O)CC[C@]4(C)C3CC[C@@]21C` (stereo partly specified): the PGE2 EC50 with compound is 0.76 nM.
Still for that read-out and setting: to `c1ccc(-c2n[nH]nc2-c2ccccc2)cc1` belongs 0.9 nM; to `CCOC(=O)c1sc2nccc(N(C)C)c2c1N=CNOCc1ccccc1`, 1.25 nM.
Consider `CSc1ccccc1NC(=O)COc1ccc(Cl)cc1C`, for which the PGE2 EC50 with compound was 1.06 nM.
Same read-out and setting: for `O=C(Oc1ccc(-c2nccc(-c3ccccn3)n2)cc1)c1cccc(C(F)(F)F)c1` the value was 1.44 nM; for `N#Cc1c(-c2ccco2)nc(SCC(=O)Nc2cccc(Cl)c2)[nH]c1=O`, 1.15 nM; for `COC(=O)c1c(NC(=O)c2ccc(Br)s2)sc2c1CCC2`, 1.14 nM.
Same read-out and setting: for `CC(Cc1ccccc1)NC(=O)C1(c2ccccc2)CCOCC1` (stereo unspecified) the value was 1.2 nM.
Same read-out and setting: to `N#CN=C1SCCS1` belongs 0.92 nM; to `CC(=O)N1c2ccccc2C(C)(c2ccccc2)CC1(C)C` (stereo unspecified), 2.45 nM; to `O=S(=O)(c1ccc(F)c(Cl)c1)N1CCCC1`, 1.02 nM.
`O=[N+]([O-])c1ccc(Cl)c2c1C1C=CCC1C(c1ccccn1)N2` (stereo unspecified): the PGE2 EC50 with compound turned out to be 0.69 nM.
Consider `O=c1[nH]c2ccc(Cl)cc2c(-c2ccccc2)c1N1CCN(c2ccccn2)CC1`, for which the PGE2 EC50 with compound turned out to be 1.64 nM.
Same read-out and setting: to `O=S1(=O)CCN(Cc2cccc(Cl)c2)CC1` belongs 1.39 nM.
On the same count and under the same terms, for `O=C1C2C3c4ccccc4C(c4ccccc43)C2c2nc3ccccc3n21` (stereo unspecified) the value was 1.4 nM; for `CC(C)n1c2ccccc2c2nc3ccccc3nc21`, 2.59 nM.
With `O=C1C2C3c4ccccc4C(c4ccccc43)[C@@H]2c2nc3ccccc3n21` (stereo partly specified), the result was active and the PGE2 EC50 with compound was 0.7 nM.
Regarding `C=CCN1C(=O)/C(=C/c2ccc(O)c(OC)c2)S/C1=N/c1nccs1`, the PGE2 EC50 with compound came to 1.27 nM.
With `CN(Cc1cccs1)c1nc(-c2cccnc2)nc2ccccc12`, the PGE2 EC50 with compound worked out at 1.07 nM.
On the same count and under the same terms, to `O=C(O)CCCCCCCCCCCc1ccccc1` belongs 0.88 nM; to `CCOc1ccccc1NC(=O)c1ccccc1-c1nc(-c2ccccc2)no1`, 1.14 nM; to `CC1=CC(C)(C)N2C(=O)C3(SCC(=O)N3c3ccc(F)cc3)c3cc(C)cc1c32` (stereo unspecified), 1.12 nM.
Still for that read-out and setting: to `CCCCCCn1c(COc2ccccc2F)nnc1SCC(=O)N1c2ccccc2NC(=O)C1(C)C` belongs 0.93 nM; to `O=C(Nc1ccccc1)c1nn(-c2cccc(C(F)(F)F)c2)ccc1=O`, 2.72 nM; to `CCOC(=O)C1=C(N)OC(C)=C(C#N)C1c1ccco1` (stereo unspecified), 1.49 nM.
Same read-out and setting: to `CC(C)C1(C)N=C(c2ncccc2C(=O)O)NC1=O` (stereo unspecified) belongs 2.52 nM; to `O=C(Cc1ccccc1)Nc1ccccc1N1CCN(c2ccccc2)CC1`, 0.95 nM.
In the case of `O=C(CSc1nc2cc(Cl)ccc2s1)N1CCCc2ccccc21`, the PGE2 EC50 with compound was determined as 1.09 nM.
On the same count and under the same terms, for `CN(N=O)c1ccc(O)c(O)c1` the value was 1.26 nM.
On the same count and under the same terms, to `Cc1ccc2c(c1)N(Cc1cccc(Cl)c1)C(=O)c1cccnc1O2` belongs 0.95 nM.
Same read-out and setting: for `Cc1cc(C)c(S(=O)(=O)c2ccccc2)c(OC(=O)c2c(Cl)cc(Cl)cc2Cl)n1` the value was 1.27 nM; for `C=CCn1c(SCC(N)=O)nc(C)cc1=O`, 1.07 nM.

Values taken from PubChem BioAssay AID1421 (Emory University Molecular Libraries Screening Center, 2008).
